According to the supplement of paper PMC11451515:

Test system: SEM cells
Assay: cell viability relative to DMSO control; higher = less cytotoxic
Conditions: 48 h
In short: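 Three leukemia lines were tested: NOMO1 and SEM at 500 cells/well and P12-Ichikawa at 1000 cells/well. Each was adapted for at least four passages in each medium and seeded in 5 μl in 1536-well plates, and library compounds in DMSO were pin-dosed from 47 μM to 0.79 nM in 11 threefold steps. After 48 h at 37°C, CellTiter-Glo One luminescence was read. Viability is a percentage relative to DMSO wells on each plate, with cell-free wells as background.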

[1] = HPLM + 10% dialyzed FBS, 0.000781 µM
[2] = HPLM + 10% dialyzed FBS, 0.00234 µM
[3] = HPLM + 10% dialyzed FBS, 0.00702 µM
[4] = HPLM + 10% dialyzed FBS, 0.0211 µM
[5] = HPLM + 10% dialyzed FBS, 0.0632 µM
[6] = HPLM + 10% dialyzed FBS, 0.19 µM
[7] = HPLM + 10% dialyzed FBS, 0.569 µM
[8] = HPLM + 10% dialyzed FBS, 1.71 µM
[9] = HPLM + 10% dialyzed FBS, 5.12 µM
[10] = HPLM + 10% dialyzed FBS, 15.4 µM
[11] = HPLM + 10% dialyzed FBS, 46.1 µM
[12] = RPMI 5 mM glucose + 10% FBS, 0.000781 µM
[13] = RPMI 5 mM glucose + 10% FBS, 0.00234 µM
[14] = RPMI 5 mM glucose + 10% FBS, 0.00702 µM
[15] = RPMI 5 mM glucose + 10% FBS, 0.0211 µM
[16] = RPMI 5 mM glucose + 10% FBS, 0.0632 µM
[17] = RPMI 5 mM glucose + 10% FBS, 0.19 µM
[18] = RPMI 5 mM glucose + 10% FBS, 0.569 µM
[19] = RPMI 5 mM glucose + 10% FBS, 1.71 µM
[20] = RPMI 5 mM glucose + 10% FBS, 5.12 µM
[21] = RPMI 5 mM glucose + 10% FBS, 15.4 µM
[22] = RPMI 5 mM glucose + 10% FBS, 46.1 µM
[23] = RPMI 5 mM glucose + 10% dialyzed FBS, 0.000781 µM
[24] = RPMI 5 mM glucose + 10% dialyzed FBS, 0.00234 µM
[25] = RPMI 5 mM glucose + 10% dialyzed FBS, 0.00702 µM
[26] = RPMI 5 mM glucose + 10% dialyzed FBS, 0.0211 µM
[27] = RPMI 5 mM glucose + 10% dialyzed FBS, 0.0632 µM
[28] = RPMI 5 mM glucose + 10% dialyzed FBS, 0.19 µM
[29] = RPMI 5 mM glucose + 10% dialyzed FBS, 0.569 µM
[30] = RPMI 5 mM glucose + 10% dialyzed FBS, 1.71 µM
[31] = RPMI 5 mM glucose + 10% dialyzed FBS, 5.12 µM
[32] = RPMI 5 mM glucose + 10% dialyzed FBS, 15.4 µM
[33] = RPMI 5 mM glucose + 10% dialyzed FBS, 46.1 µM

Row | Compound | cell viability [1] | cell viability [2] | cell viability [3] | cell viability [4] | cell viability [5] | cell viability [6] | cell viability [7] | cell viability [8] | cell viability [9] | cell viability [10] | cell viability [11] | cell viability [12] | cell viability [13] | cell viability [14] | cell viability [15] | cell viability [16] | cell viability [17] | cell viability [18] | cell viability [19] | cell viability [20] | cell viability [21] | cell viability [22] | cell viability [23] | cell viability [24] | cell viability [25] | cell viability [26] | cell viability [27] | cell viability [28] | cell viability [29] | cell viability [30] | cell viability [31] | cell viability [32] | cell viability [33]
1 | OC[C@H]1O[C@H](C[C@@H]1O)N2\C=C(\I)C(=O)NC2=O | 86.1% | 99.2% | 97.3% | 93% | 99% | 113% | 117% | 88.2% | 95.3% | 74.7% | 69.6% | 97.1% | 110% | 104% | 107% | 102% | 113% | 101% | 110% | 101% | 77.8% | 66.5% | 90.9% | 92.5% | 92% | 99.9% | 98.4% | 109% | 84.3% | 64.3% | 60% | 49.2% | 39.4%
2 | O=C(O)c1nn(Cc2ccc(Cl)cc2Cl)c2ccccc12 | 93.5% | 90.1% | 95.5% | 96.3% | 86.5% | 54.8% | 68.7% | 92.3% | 84.7% | 76.2% | 54.7% | 124% | 123% | 132% | 130% | 93.3% | 83.6% | 86.2% | 135% | 95.2% | 94.7% | 81% | 96.1% | 89.9% | 89.1% | 77.2% | 76.3% | 46.9% | 69% | 97.5% | 70.1% | 92.7% | 59.6%
3 | Cc1ccc([S+](=O)([O-])NC(=O)NN2CC3CCCC3C2)cc1 (stereo not given) | 57.6% | 102% | 89.1% | 106% | 101% | 100% | 96.9% | 86.1% | 58.7% | 18.7% | 9.78% | 55.2% | 93.6% | 77.9% | 94.5% | 106% | 94.4% | 80.8% | 76.6% | 43.7% | 14.9% | 9.35% | 50.2% | 98.7% | 84.5% | 96.6% | 109% | 87.8% | 84.7% | 67.7% | 39.3% | 26.8% | 13.1%
4 | Oc1ccc(C2CNCCc3c2cc(O)c(O)c3Cl)cc1 (stereo not given) | 98% | 103% | 90% | 91.2% | 91.5% | 104% | 90.8% | 48.5% | 102% | 89.5% | 108% | 83% | 95% | 97.2% | 96.6% | 84.6% | 97.5% | 90.8% | 47.5% | 103% | 91.4% | 94.6% | 81.9% | 93.1% | 86.6% | 96.6% | 76.9% | 112% | 100% | 70.2% | 114% | 101% | 102%
5 | COc1ccccc1OCC(O)CN1CCN(CC(=O)Nc2c(C)cccc2C)CC1 (stereo not given) | 81.9% | 101% | 98% | 121% | 126% | 123% | 111% | 118% | 136% | 130% | 136% | 104% | 135% | 122% | 128% | 134% | 148% | 123% | 142% | 134% | 129% | 131% | 115% | 128% | 114% | 136% | 125% | 135% | 137% | 121% | 132% | 130% | 126%
6 | COC(=O)Nc1nc2cc(Sc3ccccc3)ccc2[nH]1 | 107% | 108% | 119% | 115% | 124% | 130% | 100% | 102% | 22.6% | 24.1% | 24.2% | 119% | 121% | 131% | 129% | 113% | 114% | 93.2% | 91.6% | 15.3% | 18.6% | 18.2% |  |  |  |  |  |  |  |  |  |  | 
7 | CN(C)[C@H]\1[C@@H]2[C@@H](O)[C@H]3\C(=C(O)/[C@]2(O)C(=O)\C(=C1O)C(N)=O)C(=O)C4=C(C=CC=C4O)[C@@]3(C)O | 100% | 95.3% | 99.4% | 98.8% | 98.9% | 106% | 105% | 103% | 117% | 106% | 95.7% | 102% | 123% | 121% | 125% | 115% | 114% | 129% | 121% | 104% | 133% | 118% | 113% | 121% | 121% | 118% | 125% | 124% | 115% | 114% | 122% | 118% | 118%
8 | Cc1ccc(C)c(OCCCC(C)(C)C(=O)O)c1 | 83.8% | 81.2% | 99.6% | 85.3% | 97.3% | 94.9% | 92.5% | 92.7% | 92.6% | 98.5% | 96.8% | 97.1% | 87.2% | 87.9% | 97.9% | 94.8% | 103% | 88.7% | 93.9% | 103% | 103% | 92.1% | 91% | 104% | 93.1% | 90.7% | 104% | 91.9% | 102% | 87.1% | 99.5% | 108% | 95.5%
9 | Cc1n[nH]c2ccc(-c3cncc(OC[C@@H](N)Cc4c[nH]c5ccccc45)c3)cc12 | 98.9% | 104% | 89.8% | 97.8% | 83.7% | 40.6% | 32.9% | 19.2% | 2.11% | 0.908% | 1.79% | 94.9% | 111% | 88.6% | 102% | 95.7% | 67% | 59.7% | 25% | 2.35% | 0.602% | 1.49% | 103% | 99.4% | 84.2% | 92.3% | 89% | 56.1% | 47.7% | 26.6% | 2.83% | 0.892% | 1.9%
10 | CNC(=O)c1cc(COc2nnc(Nc3ccc(Cl)cc3)c3ccoc23)ccn1 | 108% | 112% | 102% | 110% | 121% | 97.9% | 96% | 108% | 102% | 79.9% | 61.2% | 124% | 124% | 110% | 124% | 117% | 127% | 128% | 129% | 97.1% | 95% | 64.7% | 96.6% | 108% | 90.4% | 99% | 95.4% | 104% | 102% | 86.1% | 88.4% | 70.4% | 47.9%
11 | COC1=CC2=C(C=C1CC3=C(F)C(=CC=C3)Cl)C(=O)\C(=C/N2[C@H](CO)C(C)C)C(O)=O | 120% | 120% | 119% | 26.7% | 115% | 133% | 113% | 106% | 117% | 93.7% | 23.7% |  |  |  |  |  |  |  |  |  |  |  |  |  |  |  |  |  |  |  |  |  | 
12 | CN1\C(=C(O)/C2=C(C=C(Cl)S2)[S+]1([O-])=O)C(=O)NC3=NC=CC=C3 | 124% | 130% | 119% | 24.6% | 127% | 114% | 114% | 114% | 112% | 101% | 106% | 91.4% | 88% | 82.7% | 14.3% | 88.3% | 88.1% | 68.8% | 85.4% | 99.6% | 87.5% | 74.8% | 125% | 123% | 118% | 25.3% | 123% | 134% | 104% | 102% | 103% | 111% | 87.7%
13 | NC(=O)[C@@H](CCC(F)(F)F)N(Cc1ccc(-c2ncon2)cc1F)[S+](=O)([O-])c1ccc(Cl)cc1 | 96.6% | 106% | 102% | 106% | 103% | 98.8% | 81.4% | 90.9% | 91.5% | 72.2% | 4.51% | 114% | 108% | 104% | 114% | 114% | 92.9% | 83.8% | 81.9% | 84.3% | 30% | 2.87% | 84.4% | 98.6% | 98.2% | 98.7% | 86.3% | 88.6% | 95.8% | 79.5% | 70.9% | 52.3% | 2.93%
14 | Cc1cccc(Nc2nc(N[C@@H]3CCCC[C@@H]3N)ncc2C(N)=O)c1 | 109% | 107% | 112% | 104% | 107% | 118% | 114% | 88.6% | 44% | 30.9% | 32.3% | 66.2% | 80.1% | 78% | 79.7% | 69.8% | 89.4% | 87.1% | 74.2% | 33.8% | 11.5% | 14.5% | 95.7% | 126% | 104% | 112% | 103% | 114% | 96.2% | 81.1% | 25.6% | 23.3% | 25%
15 | OCCN1CCN(CCCN2c3ccccc3Sc3ccc(C(F)(F)F)cc32)CC1 | 85.3% | 90% | 80.6% | 34.4% | 104% | 110% | 7.1% | 37.4% | 88.7% | 49.5% | 47.8% | 74.8% | 89.4% | 85.7% | 36% | 96.2% | 122% | 7.38% | 21.4% | 102% | 47.6% | 34.1% | 76.3% | 87.2% | 86.3% | 74.5% | 84% | 115% | 13.7% | 31.1% | 92.3% | 46.3% | 35.9%
16 | Clc1ccc(C(Cn2ccnc2)OCc2ccsc2Cl)c(Cl)c1 (stereo not given) | 67.6% | 98.8% | 107% | 93.1% | 114% | 110% | 90.4% | 111% | 111% | 114% | 35.7% | 76.4% | 95.1% | 114% | 105% | 132% | 121% | 100% | 122% | 110% | 112% | 65.6% | 69.3% | 110% | 110% | 117% | 128% | 124% | 101% | 109% | 118% | 105% | 55.9%
